Experimental findings from ChEMBL document CHEMBL1148854, “Synthesis and biological evaluation of unprecedented classes of spiro-beta-lactams and azido-beta-lactams as acyl-CoA:cholesterol acyltransferase inhibitors” (Bioorg Med Chem Lett, 2007) are described below.

Assay [1] addresses T1, Acyl-CoA:cholesterol acyltransferase (Oryctolagus cuniculus, UniProt Q95214).
T1 sequence (Q95214 whole entry): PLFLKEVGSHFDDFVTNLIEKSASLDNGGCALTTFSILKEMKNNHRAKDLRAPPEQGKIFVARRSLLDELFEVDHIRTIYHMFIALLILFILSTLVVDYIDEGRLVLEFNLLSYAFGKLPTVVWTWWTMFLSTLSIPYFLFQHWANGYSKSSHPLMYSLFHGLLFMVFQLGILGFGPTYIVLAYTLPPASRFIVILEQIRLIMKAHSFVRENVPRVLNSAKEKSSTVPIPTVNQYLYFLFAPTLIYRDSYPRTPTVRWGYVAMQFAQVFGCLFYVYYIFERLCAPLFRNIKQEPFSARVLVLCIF
The experiment in a line: Inhibition of ACAT in Albino rabbit intestinal mucosa.

The target of assay [2] is T2, Acyl-CoA:cholesterol acyltransferase (Oryctolagus cuniculus) (UniProt Q95214).
T2 sequence (whole entry): T1 sequence (Q95214 whole entry)
Put plainly: Inhibition of ACAT in Albino rabbit intestinal mucosa at 10 uM.

In general, IC50 refers to the concentration that inhibits the measured activity by half. Turning to `CC[C@H](C)C(=O)O[C@H]1C[C@@H](C)C=C2C=C[C@H](C)[C@H](CC[C@@H]3C[C@@H](O)CC(=O)O3)[C@H]21` [LOVASTATIN], in assay [1], it took 16.8 µM to reach half-maximal inhibition (IC50).
By inhibition is commonly meant the relative decrease from the control value, in per cent. High values mean a strong effect, low ones a weak effect. Regarding `CC[C@@H](N=[N+]=[N-])[C@@H](O)[C@]1(Br)C(=O)N([C@@H](C)c2ccccc2)[C@H]1c1ccccc1`, the inhibition in assay [2] was found to be 65%.
Turning to `CC[C@H](N=[N+]=[N-])[C@H](O)[C@]1(Br)C(=O)N([C@@H](C)c2ccccc2)[C@H]1c1ccccc1`, the inhibition in assay [2] was 60%.
